# Data reported in patent publication US10500188B1, “Use of a polyenylpyrrole derivative in preparation of anti-oral cancer drugs” (TZU CHI UNIVERSITY, priority 2019, dated 2019).
# How the values were obtained:
# normal oral cells (K2) = experiment: MTT cell proliferation assay, normal oral cells (K2); format: cell-based; conditions: 100, 500, 800, 1000 nM, 24 and 48 hr, FIG. 2A
# Protocol: MTT (3-(4,5-dimethylthiazol-2-yl)-2,5-diphenyltetrazolium bromide) assay is used for measuring cell proliferation. Add 3000 OSCC cells (SCC-15 and TW2.6) and 5000 immortalized cells (K2) into each well of a 96-well plate. Next day add the present polyenylpyrrole derivative (F236B) into the respective well and remove culture medium after 24 hours (hr) and 48 hr respectively. Then add MTT dissolved in culture medium (150 μL per well) except the background wells and react for 90 min. Lastly remove solution in the culture plate and add DMSO (150 μL per well) into the culture plate for dissolving the pigment. After being dissolved completely, use the ELISA machine to measure absorbance at 570 nm. […] 2A-2C.
# OSCC cells (SCC-15) = experiment: MTT cell proliferation assay, OSCC cells (SCC-15); format: cell-based, human
# Protocol: (§1) MTT (3-(4,5-dimethylthiazol-2-yl)-2,5-diphenyltetrazolium bromide) assay is used for measuring cell proliferation. Add 3000 OSCC cells (SCC-15 and TW2.6) and 5000 immortalized cells (K2) into each well of a 96-well plate. Next day add the present polyenylpyrrole derivative (F236B) into the respective well and remove culture medium after 24 hours (hr) and 48 hr respectively. Then add MTT dissolved in culture medium (150 μL per well) except the background wells and react for 90 min. Lastly remove solution in the culture plate and add DMSO (150 μL per well) into the culture plate for dissolving the pigment. After being dissolved completely, use the ELISA machine to measure absorbance at 570 nm. The concentration of the polyenylpyrrole derivative (F236B) used is 10, 50, 80, 100, and 200 nM respectively, as results shown in FIG. 2A-2C.
# Also refer to FIG. 2C, test results of OSCC cells (TW2.6) treated with 10, 50, 80, 100, and 200 nM polyenylpyrrole derivative (F236B) respectively are disclosed. […] Moreover, the present polyenylpyrrole derivative (F236B) not only has effects on the OSCC cells of Western people (SCC-15) but also affects the OSCC cells of Asians (TW2.6). Thus the polyenylpyrrole derivative (F236B) can be widely used in the OSCC cells. In the previous tests for assessment of the effects of natural products on cancer cells, the unit of the concentration unit used is μM. […]
# [1] = test system: TW2.6 human oral squamous cell carcinoma (OSCC) cell line; experiment: MTT cell proliferation assay, OSCC cells (TW2.6); format: cell-based; conditions: 10, 50, 80, 100, 200 nM, 24 and 48 hr, FIG. 2C
# Description: The present polyenylpyrrole derivative is used to inhibit oral cancer cells. The oral cancer cell can be oral squamous cell carcinoma (OSCC) cell (SCC-15 cell line). The TW2.6 human oral squamous cell carcinoma (OSCC) cell line obtained from Asian people can also be used in cell proliferation assay.
# as §1
# Also refer to FIG. 2C, test results of OSCC cells (TW2.6) treated with 10, 50, 80, 100, and 200 nM polyenylpyrrole derivative (F236B) respectively are disclosed. […]
# SCC-15 xenograft tumor = experiment: Cell-line-derived xenograft model (SCC-15 cell line); format: in vivo, NOD-SCID male mice; conditions: 1 mg/kg s.c. into neck, vs PBS control, FIG. 2D
# Description: (§2) In order to learn whether in vivo test results of OSCC cells (SCC-15, TW2.6) are consistent with in vitro test results of the same, a cell-line-derived xenograft model (SCC-15 cell line) and a patient-derived xenograft (PDX) model of patients with oral cancers are used to test xenograft tumorigenicity of oral cancer cells and the results are shown in FIG. 2D-2F.
# As to the cell-line-derived xenograft model, six-to-eight-week-old NOD-SCID male mice are used. About 5×10^6 SCC-15 cells are subcutaneously injected into the right abdominal of the mouse. There are two experimental groups. The mouse in the first group (I) is injected with the polyenylpyrrole derivative (F236B) the day after being injected with the OSCC cells. In the second group (II), the mouse is injected with the polyenylpyrrole derivative (F236B) when the tumor grows to a size with a diameter of about […]. The polyenylpyrrole derivative (F236B) at a dose of 1 mg/kg is subcutaneously injected into the neck of the mouse. Samples are taken when the cells grow to a size with a diameter of about 1 cm (21-day).
# [2] = test system: patient oral cancer tissue xenograft; experiment: Patient-derived xenograft (PDX) model of patients with oral cancers; format: in vivo, NOD-SCID male mice
# Description: as §2
# After approval of the institutional review board (IRB), oral cancer tissues of patients are collected at the Department of Otolaryngology, Hualien Tzu Chi Hospital during the period from Jul. 1, 2016 to Jun. 30, 2017. The PDX model has been established by immersing and washing the samples collected in Penicillin/Streptomycin diluted 2-fold with PBS, and using six-to-eight-week-old NOD-SCID male mice. After injection of a 0.01 mL/g body weight dose of ketamine/xylazine into a mouse, a 1.5×1.5 cm^2 skin surface at the right abdomen of the anesthetized mouse is treated with a depilatory agent to remove hair. Use tincture of iodine as a disinfectant and cut a wound of […] on the mouse skin and suture the wound after tumor tissue being applied. During recovery period, the rearing cage is set on the heating pad and turned back to the rearing rack after recovery. After the surgery, observe the mouse day by day and then get the mouse out of the cage when the tumor reaches a diameter of about 1 cm. […]
# [3] = test system: prostate apoptosis response-4 (Par-4); experiment: Expression of Par-4 in OSCC cells; format: cell-based; conditions: FIG. 3C
# Protocol: Also refer to FIG. 3D and FIG. 3E. The results of the SC group (SCC-15 cell line without the knockdown Par-4 gene) treated with 10 nM, 50 nM, 80 nM, 100 nM, and 200 nM polyenylpyrrole derivative (F236B) for 24 hours and 48 hours respectively are shown in FIG. 3D. The results of the Par-4-KD group (SCC-15 cell line with the knockdown Par-4 gene) treated with 10 nM, 50 nM, 80 nM, 100 nM, and 200 nM polyenylpyrrole derivative (F236B) for 24 hours and 48 hours respectively are shown in FIG. 3E.
# SCC-15 cells [4] = experiment: Tumor sphere formation on matrigel; format: cell-based, human; conditions: compared with the Par-4-KD group; FIG. 4
# Protocol: Refer to FIG. 4, the test results of the tumor sphere formation ability of the OSCC cells are shown. In order to culture cells (SCC-15) for tumor sphere formation, each well of a 24-well plate is coated with 150 μL growth factor reduced matrigel, then placed in 4° C. refrigerator and shaken for 15 minutes to make the growth factor reduced matrigel distribute evenly therein. Place in 37° C. incubator for 1 hour. After firm matrigel formation, each well is added with 5000 SCC-15 cells and change culture medium every day.
# [5] = test system: SCC-15 cell line without the knockdown Par-4 gene; experiment: Migration test, SC group; format: cell-based, human; conditions: 100 nM and 200 nM; 0, 3, 9 hr; FIG. 5A
# Protocol: Then migration and movement of the Par-4-KD group and the SC group treated with polyenylpyrrole derivative (F236B) is tested and the results are shown in FIG. 5A-5B and FIG. 6.
# The results of the Par-4-KD group (SCC-15 cell line with the knockdown Par-4 gene) treated with 100 nM and 200 nM polyenylpyrrole derivative (F236B) for 0, 3, and 9 hrs respectively are shown in FIG. 5B.
# SCC-15 cells [6] = experiment: Transwell assay for movement of tumor cells; format: cell-based, human; conditions: 24 and 48 hrs, compared with the Par-4-KD group, FIG. 6
# Protocol: Refer to FIG. 6, a transwell assay is used for testing movement of tumor cells. A 24-well transwell chamber with 8.0 μm polycarbonate membrane (6.5 mm) therein is used. Add 100 μL serum free media into the upper layer and 500 μL media containing 10% serum into the lower layer. Then add 5000 cells (SCC-15) into the upper layer of each well, incubate overnight and add the polyenylpyrrole derivative (F236B). Remove the upper layer after 24 hrs and 48 hrs, respectively and wash 2 times with PBS. Add methanol (500 μL per well) at 4° C. for 1 hr for fixation and wash 2 times with PBS. Next, stain with crystal violet for 10 min and wash 2 times with PBS. Lastly observe and count the number of cells moved to the lower layer.
# [7] = test system: IL-17RA in OSCC cells (SCC-15); experiment: Western blot of IL-17RA expression; format: cell-based, human; conditions: SCC-15, Western blot, vs DMSO control; FIG. 7
# Protocol: Western blot is used to detect expression of IL-17RA in the OSCC cells (SCC-15) treated with the polyenylpyrrole derivative (F236B). The proteins are separated by SDS-PAGE gel and then transferred to a Polyvinylidene difluoride (PVDF) membrane. Then soak in 5% BSA (bovine serum albumin) for 1 hour for blocking. After removal of BSA and addition of primary antibodies, place the membrane in 4° C. refrigerator with constant shaking for 16 hr and wash 3 times with TBST-Tween20 (TBST) (each takes 15 min). Next add secondary antibodies and shake at room temperature for 1 hour. Then wash 3 times with TBST and each step takes 15 min. Lastly use enhanced chemiluminescent (ECL) reagent (RPN2106 ECL™ Western Blotting Reagent) for imaging and UVP BioSpectrum to detect images. […] Therefore, the reduction effect of the polyenylpyrrole derivative (F236B) on the expression of IL-17RA is associated with the tumor-suppressor function of the polyenylpyrrole derivative (F236B).
compound,measurement,setting,value
CCOc1cc(/C=C/C=C/C=C/C=C/c2[nH]ccc2Cl)oc(=O)c1 [F236B],proliferation of normal oral cells (K2),normal oral cells (K2),doesn't affect the proliferation of normal oral cells
same,proliferation of OSCC cells (SCC-15),"OSCC cells (SCC-15); MTT, 10, 50, 80, 100, 200 nM, 24 and 48 hr, FIG. 2B",inhibits proliferation of the OSCC cells (SCC-15)
same,proliferation of OSCC cells in the SC group,"OSCC cells (SCC-15); SCC-15 without Par-4 knockdown, 10-200 nM, 24 and 48 hours, FIG. 3D",apparently reduced
same,proliferation of OSCC cells (TW2.6),[1],inhibits proliferation of the OSCC cells (TW2.6)
same,"tumor volume, first group (I)","SCC-15 xenograft tumor; started the day after injection of OSCC cells, 21-day",significantly reduced
same,"tumor volume, second group (II)",SCC-15 xenograft tumor; started when tumor diameter about 30 mm,significantly reduced
same,"tumor volume, PDX","[2]; P3 mice, 1 mg/kg s.c. into neck, vs PBS control, FIG. 2E",dramatically decreased
same,weight of the mouse,"[2]; treated with F236B vs PBS, triplicate groups, FIG. 2F",not affected
same,expression of Par-4 in the OSCC cells,[3],enhances expression of Par-4
same,"tumor sphere formation ability, SC group",SCC-15 cells [4],obviously reduced
same,"migration ability, SC group",[5],clearly reduced
same,movement of the OSCC cells in the SC group,SCC-15 cells [6],significantly reduced
same,expression of IL-17RA,[7],obviously inhibited
